Measured values taken from Sander's compilation of Henry's law constants (doi:10.1016/s1387-3806(02)00927-2).

Test: Henry solubility constant Hcp at 295 K (mol/(m3 Pa))
Settings: reference: Karl et al. (2003)
For `Cc1cc(C)cc(C)c1` [1,3,5-trimethylbenzene], the “Henry solubility constant Hcp at 295 K” value was 0.002.
With `Cc1cccc(C)c1` [1,3-dimethylbenzene] the “Henry solubility constant Hcp at 295 K” value was 0.0013.
With `CC1=CC=C(C(C)C)CC1` [1-methyl-4-(1-methylethyl)-1,3-cyclohexadiene] the “Henry solubility constant Hcp at 295 K” value was 0.00045.
In the case of `c1ccccc1` [benzene], the “Henry solubility constant Hcp at 295 K” value is reported as 0.0018.
With `Cc1ccccc1` [methylbenzene] the “Henry solubility constant Hcp at 295 K” value was 0.0014.
For `CCCc1ccccc1` [propylbenzene], the “Henry solubility constant Hcp at 295 K” value was 0.0015.

Test: Henry solubility constant Hcp at 291 K (mol/(m3 Pa))
Settings: reference: Karl et al. (2003)
With `C=CC(=C)C` [2-methyl-1,3-butadiene] the “Henry solubility constant Hcp at 291 K” value was 0.00029.

Test: Henry solubility constant Hcp at 298.15 K (mol/(m3 Pa))
Settings: reference: Karl et al. (2003)
For `CCc1cccc(O)c1` [1-hydroxy-3-ethylbenzene], the “Henry solubility constant Hcp” value was 4.9.
In the case of `COc1nccnc1CC(C)C` [2-isobutyl-3-methoxypyrazine], the “Henry solubility constant Hcp” value is reported as 0.17.
In the case of `CCC/C=C/C=O` [(E)-2-hexenal], the “Henry solubility constant Hcp” value is reported as 0.14.
For `CC/C=C/CCOC(C)=O` [(E)-3-hexenyl ethanoate], the “Henry solubility constant Hcp” value was 0.033.
With `CC/C=C\CCOC(C)=O` [(Z)-3-hexenyl ethanoate] the “Henry solubility constant Hcp” value was 0.031.
In the case of `CCCCCCOC(C)=O` [hexyl ethanoate], the “Henry solubility constant Hcp” value is reported as 0.015.
